Laboratory results reported in ChEMBL document CHEMBL5291721, “A preclinical secondary pharmacology resource illuminates target-adverse drug reaction associations of marketed drugs” (Nat Commun, 2023).

Experiments:
[1] = molecular target: T1, B2 bradykinin receptor (Homo sapiens, UniProt P30411)
T1 sequence (P30411 whole entry): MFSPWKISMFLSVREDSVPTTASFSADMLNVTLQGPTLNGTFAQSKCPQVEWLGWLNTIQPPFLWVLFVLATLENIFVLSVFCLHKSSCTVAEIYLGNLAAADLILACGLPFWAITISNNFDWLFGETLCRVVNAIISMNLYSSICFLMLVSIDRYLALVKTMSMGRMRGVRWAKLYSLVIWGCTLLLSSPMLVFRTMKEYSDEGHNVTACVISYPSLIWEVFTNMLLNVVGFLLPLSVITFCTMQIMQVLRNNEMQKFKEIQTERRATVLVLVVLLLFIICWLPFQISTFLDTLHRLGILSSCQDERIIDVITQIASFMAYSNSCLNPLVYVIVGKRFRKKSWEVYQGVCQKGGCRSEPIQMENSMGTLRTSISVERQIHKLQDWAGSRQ

[2] = molecular target: Cannabinoid receptor 1 (Homo sapiens, UniProt P21554)
[3] = molecular target: T2, Endothelin-1 receptor (Homo sapiens, UniProt P25101)
T2 sequence (P25101 whole entry): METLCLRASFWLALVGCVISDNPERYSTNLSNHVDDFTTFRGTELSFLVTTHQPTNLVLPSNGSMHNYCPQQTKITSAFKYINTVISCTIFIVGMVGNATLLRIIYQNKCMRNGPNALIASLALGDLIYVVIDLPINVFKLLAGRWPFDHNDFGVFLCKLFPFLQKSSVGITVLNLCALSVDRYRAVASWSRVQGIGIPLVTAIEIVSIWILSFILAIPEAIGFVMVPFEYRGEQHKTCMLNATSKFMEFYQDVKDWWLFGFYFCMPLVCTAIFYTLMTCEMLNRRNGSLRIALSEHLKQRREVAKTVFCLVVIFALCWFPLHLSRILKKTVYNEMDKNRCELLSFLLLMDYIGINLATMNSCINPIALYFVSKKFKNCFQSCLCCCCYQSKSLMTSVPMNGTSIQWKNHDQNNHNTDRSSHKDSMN

[4] = molecular target: Histamine H2 receptor (Homo sapiens, UniProt P25021); format: functional, cell-based
[5] = molecular target: T3, Progesterone receptor (Homo sapiens, UniProt P06401); format: functional
T3 sequence (P06401 whole entry): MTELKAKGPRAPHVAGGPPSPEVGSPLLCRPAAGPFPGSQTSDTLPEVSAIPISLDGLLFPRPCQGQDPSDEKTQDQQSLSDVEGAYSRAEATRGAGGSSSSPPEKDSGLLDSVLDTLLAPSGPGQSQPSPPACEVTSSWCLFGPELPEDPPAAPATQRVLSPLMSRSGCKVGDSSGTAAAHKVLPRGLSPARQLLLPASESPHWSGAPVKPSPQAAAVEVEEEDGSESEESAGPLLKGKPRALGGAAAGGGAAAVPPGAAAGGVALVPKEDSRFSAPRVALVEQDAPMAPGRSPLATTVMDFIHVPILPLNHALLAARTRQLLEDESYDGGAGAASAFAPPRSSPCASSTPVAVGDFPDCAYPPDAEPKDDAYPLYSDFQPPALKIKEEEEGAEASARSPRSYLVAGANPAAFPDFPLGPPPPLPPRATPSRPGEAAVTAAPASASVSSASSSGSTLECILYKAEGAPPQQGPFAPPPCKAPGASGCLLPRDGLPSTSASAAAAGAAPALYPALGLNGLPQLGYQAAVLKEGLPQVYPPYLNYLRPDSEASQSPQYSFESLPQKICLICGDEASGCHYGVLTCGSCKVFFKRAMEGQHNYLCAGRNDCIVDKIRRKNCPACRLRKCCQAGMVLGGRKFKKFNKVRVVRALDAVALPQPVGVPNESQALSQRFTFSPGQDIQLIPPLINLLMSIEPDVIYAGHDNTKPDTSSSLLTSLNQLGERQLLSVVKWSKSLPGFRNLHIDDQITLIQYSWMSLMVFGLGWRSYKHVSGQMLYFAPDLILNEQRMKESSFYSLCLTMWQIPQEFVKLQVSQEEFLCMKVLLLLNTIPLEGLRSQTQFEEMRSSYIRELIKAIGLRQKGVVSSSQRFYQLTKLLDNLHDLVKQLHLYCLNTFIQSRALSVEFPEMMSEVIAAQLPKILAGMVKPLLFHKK

[6] = molecular target: T4, Alpha-2A adrenergic receptor (Homo sapiens, UniProt P08913)
T4 sequence (P08913 whole entry): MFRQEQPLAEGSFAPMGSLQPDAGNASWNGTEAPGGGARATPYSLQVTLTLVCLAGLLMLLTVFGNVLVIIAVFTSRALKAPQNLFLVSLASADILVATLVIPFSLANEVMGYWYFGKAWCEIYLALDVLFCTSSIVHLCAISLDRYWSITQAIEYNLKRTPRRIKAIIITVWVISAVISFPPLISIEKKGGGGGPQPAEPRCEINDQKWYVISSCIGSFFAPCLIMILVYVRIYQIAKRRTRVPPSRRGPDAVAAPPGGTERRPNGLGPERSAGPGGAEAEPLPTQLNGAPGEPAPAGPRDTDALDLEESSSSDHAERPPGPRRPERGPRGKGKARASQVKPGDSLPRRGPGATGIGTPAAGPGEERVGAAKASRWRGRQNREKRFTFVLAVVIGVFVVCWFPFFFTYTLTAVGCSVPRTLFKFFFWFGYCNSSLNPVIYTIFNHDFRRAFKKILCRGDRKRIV

[7] = molecular target: D(1A) dopamine receptor (Homo sapiens, UniProt P21728)
[8] = molecular target: T5, 5-hydroxytryptamine receptor 1A (Homo sapiens, UniProt P08908)
T5 sequence (P08908 whole entry): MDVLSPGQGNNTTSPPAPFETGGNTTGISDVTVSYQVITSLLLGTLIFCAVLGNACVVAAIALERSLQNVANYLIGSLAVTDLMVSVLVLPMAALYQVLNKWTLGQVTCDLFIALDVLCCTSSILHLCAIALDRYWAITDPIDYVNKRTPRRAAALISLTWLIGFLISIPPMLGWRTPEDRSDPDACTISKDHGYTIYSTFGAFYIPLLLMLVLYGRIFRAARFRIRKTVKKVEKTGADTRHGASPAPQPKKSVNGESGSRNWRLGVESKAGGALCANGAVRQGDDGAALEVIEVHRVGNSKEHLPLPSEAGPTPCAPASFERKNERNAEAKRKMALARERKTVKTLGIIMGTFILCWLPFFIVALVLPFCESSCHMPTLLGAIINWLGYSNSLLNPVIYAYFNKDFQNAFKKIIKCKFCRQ

[9] = molecular target: 5-hydroxytryptamine receptor 2B (Homo sapiens, UniProt P41595); format: functional, cell-based
[10] = molecular target: Prostaglandin G/H synthase 1 (Homo sapiens, UniProt P23219); format: functional
Note: assay procedure not described here.

5-hydroxytryptamine receptor 2B, sequence (P41595 whole entry): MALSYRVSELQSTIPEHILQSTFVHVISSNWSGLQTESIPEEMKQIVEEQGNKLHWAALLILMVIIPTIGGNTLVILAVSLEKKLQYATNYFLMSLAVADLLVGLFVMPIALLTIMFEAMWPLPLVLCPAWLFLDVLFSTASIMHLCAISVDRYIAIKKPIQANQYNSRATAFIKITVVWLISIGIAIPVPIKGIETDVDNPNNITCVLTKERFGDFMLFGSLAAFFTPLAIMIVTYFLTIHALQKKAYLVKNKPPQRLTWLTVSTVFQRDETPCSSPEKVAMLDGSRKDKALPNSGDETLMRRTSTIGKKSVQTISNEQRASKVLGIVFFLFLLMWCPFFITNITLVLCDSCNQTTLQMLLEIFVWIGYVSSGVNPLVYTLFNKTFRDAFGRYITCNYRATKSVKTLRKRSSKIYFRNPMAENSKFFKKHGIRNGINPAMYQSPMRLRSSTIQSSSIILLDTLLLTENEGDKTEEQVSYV
Cannabinoid receptor 1, sequence (P21554 whole entry): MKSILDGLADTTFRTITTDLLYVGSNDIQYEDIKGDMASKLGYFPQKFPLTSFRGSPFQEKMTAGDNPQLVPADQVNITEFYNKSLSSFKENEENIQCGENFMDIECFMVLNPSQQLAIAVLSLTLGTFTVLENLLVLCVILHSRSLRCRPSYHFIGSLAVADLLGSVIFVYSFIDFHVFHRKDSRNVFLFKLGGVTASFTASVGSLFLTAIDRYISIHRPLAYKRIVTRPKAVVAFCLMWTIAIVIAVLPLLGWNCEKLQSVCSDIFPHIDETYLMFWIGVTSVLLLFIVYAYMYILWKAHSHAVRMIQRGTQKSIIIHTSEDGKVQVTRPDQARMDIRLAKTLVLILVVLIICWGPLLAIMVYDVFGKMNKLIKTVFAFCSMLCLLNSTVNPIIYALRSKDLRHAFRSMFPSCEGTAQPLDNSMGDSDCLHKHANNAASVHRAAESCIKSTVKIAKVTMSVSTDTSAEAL
Histamine H2 receptor, sequence (P25021 whole entry): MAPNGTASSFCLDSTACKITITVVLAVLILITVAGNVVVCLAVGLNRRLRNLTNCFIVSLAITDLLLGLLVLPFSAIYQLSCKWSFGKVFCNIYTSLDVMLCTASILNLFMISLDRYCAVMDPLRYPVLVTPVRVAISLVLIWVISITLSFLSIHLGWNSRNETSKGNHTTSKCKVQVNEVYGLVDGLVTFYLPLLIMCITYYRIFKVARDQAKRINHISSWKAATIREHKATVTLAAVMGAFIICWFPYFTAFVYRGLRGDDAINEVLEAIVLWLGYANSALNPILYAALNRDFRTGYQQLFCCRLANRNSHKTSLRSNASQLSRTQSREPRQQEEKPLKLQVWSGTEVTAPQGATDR
D(1A) dopamine receptor, sequence (P21728 whole entry): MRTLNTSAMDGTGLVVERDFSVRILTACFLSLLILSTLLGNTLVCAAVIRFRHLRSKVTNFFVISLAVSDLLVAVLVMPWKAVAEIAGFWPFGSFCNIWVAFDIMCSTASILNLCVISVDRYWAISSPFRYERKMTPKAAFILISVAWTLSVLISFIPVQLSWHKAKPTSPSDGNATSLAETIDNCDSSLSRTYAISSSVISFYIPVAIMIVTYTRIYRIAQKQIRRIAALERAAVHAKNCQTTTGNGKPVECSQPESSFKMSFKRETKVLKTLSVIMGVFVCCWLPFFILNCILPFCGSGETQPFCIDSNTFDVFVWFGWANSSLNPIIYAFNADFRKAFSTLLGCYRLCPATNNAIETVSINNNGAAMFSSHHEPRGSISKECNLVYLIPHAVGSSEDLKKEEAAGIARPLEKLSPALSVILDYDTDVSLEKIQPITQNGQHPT
Prostaglandin G/H synthase 1, sequence (P23219 whole entry): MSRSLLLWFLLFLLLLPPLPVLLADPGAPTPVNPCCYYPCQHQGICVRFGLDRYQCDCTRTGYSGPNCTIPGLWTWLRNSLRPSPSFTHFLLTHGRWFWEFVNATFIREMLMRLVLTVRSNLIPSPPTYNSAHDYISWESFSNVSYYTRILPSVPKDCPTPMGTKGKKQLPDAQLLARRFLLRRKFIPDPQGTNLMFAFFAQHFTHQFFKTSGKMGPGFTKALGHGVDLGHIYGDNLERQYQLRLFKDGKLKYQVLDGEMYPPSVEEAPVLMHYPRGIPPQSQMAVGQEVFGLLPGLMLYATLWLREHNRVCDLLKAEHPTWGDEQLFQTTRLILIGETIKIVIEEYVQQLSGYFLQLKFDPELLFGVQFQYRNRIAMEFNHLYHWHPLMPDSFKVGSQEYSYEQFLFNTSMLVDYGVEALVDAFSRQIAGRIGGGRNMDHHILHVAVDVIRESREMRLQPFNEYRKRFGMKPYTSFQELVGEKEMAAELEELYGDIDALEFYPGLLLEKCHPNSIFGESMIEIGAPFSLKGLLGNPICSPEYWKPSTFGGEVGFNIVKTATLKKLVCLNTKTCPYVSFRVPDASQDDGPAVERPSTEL

Row | AC50 [1] | AC50 [2] | AC50 [3] | AC50 [4] | AC50 [5] | SMILES | AC50 [6] | AC50 [7] | AC50 [8] | AC50 [9] | AC50 [10]
1 | > 30 µM | > 10 µM | > 30 µM | > 10 µM | – | CCOC(=O)[C@H](CCc1ccccc1)N[C@@H](C)C(=O)N1CCC[C@H]1C(=O)O | – | – | – | – | –
2 | – | – | > 30 µM | – | > 3 µM | CC(=O)c1ccc2c(c1)N(CCCN1CCN(CCO)CC1)c1ccccc1S2 [ACETOPHENAZINE] | – | – | – | – | –
3 | > 30 µM | – | > 30 µM | > 30 µM | > 30 µM | N[C@@H](C(=O)N[C@@H]1C(=O)N2C(C(=O)O)=C(Cl)CS[C@H]12)c1ccccc1 [CEFACLOR ANHYDROUS] | – | – | – | – | –
4 | > 30 µM | > 10 µM | > 30 µM | > 10 µM | – | CCC[C@@H]1C[C@@H](C(=O)N[C@@H]([C@H]2O[C@H](SC)[C@H](O)[C@@H](O)[C@H]2O)[C@H](C)Cl)N(C)C1 [CLINDAMYCIN] | – | – | – | – | –

Second part, the molecule before the results:

Row | SMILES | AC50 [1] | AC50 [2] | AC50 [3] | AC50 [4] | AC50 [5] | AC50 [6] | AC50 [7] | AC50 [8] | AC50 [9] | AC50 [10]
5 | COC(=O)N[C@H](C(=O)N1CCC[C@H]1c1nc(-c2ccc(-c3ccc(-c4c[nH]c([C@@H]5CCCN5C(=O)[C@@H](NC(=O)OC)C(C)C)n4)cc3)cc2)c[nH]1)C(C)C | > 30 µM | > 30 µM | > 30 µM | > 30 µM | – | – | – | – | – | –
6 | CN1CCCC(n2nc(Cc3ccc(Cl)cc3)c3ccccc3c2=O)CC1 (configuration not stated) [AZELASTINE] | – | – | > 30 µM | – | > 30 µM | – | – | – | – | –
7 | C(=N\NC1=NCCN1)/c1c2ccccc2c(/C=N/NC2=NCCN2)c2ccccc12 [BISANTRENE] | – | – | – | – | – | 11.6 µM | 5.24 µM | 1.65 µM | > 30 µM | > 30 µM
8 | CC(C)NCC(O)COc1ccc(COCCOC(C)C)cc1 (configuration not stated) [BISOPROLOL] | > 30 µM | > 10 µM | > 30 µM | > 10 µM | – | – | – | – | – | –
9 | CN(C)CCCN1c2ccccc2CCc2ccc(Cl)cc21 [CLOMIPRAMINE] | – | > 10 µM | – | > 30 µM | – | 3.63 µM | – | 5.33 µM | > 30 µM | –
10 | CC(=O)OCC(=O)[C@@]1(O)CC[C@H]2[C@@H]3CCC4=CC(=O)CC[C@]4(C)[C@H]3C(=O)C[C@@]21C [CORTISONE ACETATE] | – | – | – | > 30 µM | – | – | – | – | > 30 µM | –
11 | COC(=O)[C@@H]1CC2=CC(=O)CC[C@]2(C)[C@@]23O[C@@H]2C[C@@]2(C)[C@@H](CC[C@@]24CCC(=O)O4)[C@H]13 [EPLERENONE] | > 30 µM | > 10 µM | > 30 µM | > 10 µM | – | – | – | – | – | –
12 | CCC(=O)O[C@H]1[C@H](O[C@@H]2[C@@H](C)[C@H](O[C@H]3C[C@@](C)(OC)[C@@H](O)[C@H](C)O3)[C@@H](C)C(=O)O[C@H](CC)[C@@](C)(O)[C@H](O)[C@@H](C)C(=O)[C@H](C)C[C@@]2(C)O)O[C@H](C)C[C@@H]1N(C)C [ERYTHROMYCIN PROPIONATE] | – | – | – | – | – | > 30 µM | > 30 µM | 15.1 µM | > 30 µM | > 10 µM
13 | CC(C)Cc1ccc(CC(=O)O)cc1 [IBUFENAC] | – | – | > 30 µM | – | > 30 µM | – | – | – | – | –
